According to patent US6734204B1, “Serotonin potentiation by oleamide analogs” (The Scripps Research Institute, priority 1998, dated 2004):
“Also recorded” adds a separate entry of the source. Where two headings read alike, the source gives them in different places.

Columns and labels:
rat 5-HT2A receptor [1] = biological target: T1, rat 5-HT2A receptor (Rattus norvegicus, UniProt P14842); assay: R-SAT assay, NIH 3T3 cells expressing the rat 5-HT2A receptor, β-galactosidase readout; format: cell-based; conditions: agent 500 nM, 100 nM 5-HT, compared with oleamide
T1 construct: host or cells: NIH 3T3 cells, cotransfected with the beta-galactosidase gene
Description: (§1) Activation of the 5-HT2A or 5-HT1A receptors in 5-HT dependent cell lines results in cell prolification measured by the levels of -galactosidase produced.
(§2) An extensive series of agents was tested at 500 nM for their ability to potentiate the rat 5-HT2A or human 5-HT1A receptor response to 100 nM 5-HT. […] The analog screening was conducted with the rat 5-HT2A assay and a subset of analogs was also examined in the human 5-HT1A assay. The results reported are normalized to a 100% potentiation by oleamide for the ease of direct comparisons.
(§3) Methods. The assays were conducted with R-SAT kits (Receptor Technologies Inc, Winooski, Vt.) containing NIH 3T3 cells expressing the rat 5-HT2A receptor (Suter et al. (1987) Fundam. Appl. Toxicol. 9, 785-794; Pritchett et al. (1988) EMBO J 7, 4135-4140) or RAT-1 cells expressing the human 5-HT1A receptor (Lam et al. (1996) Biochem. Biophys. Res. Commun. 219, 853-858; Kobilka et al. (1987) Nature 329, 75-79) cotransfected with the -galactosidase gene and were performed according to the procedures provided (Messier et al. (1995) Pharmacol. Toxicol. 76, 308-311; Brann et al. (1996) J. Biomol. Screening 1, 43-45). The cells in Dulbecco modified Eagle's medium containing serotonin (100 nM) and the analogs (500 nM) were incubated in a humidified 5% CO2 incubator at 37° C. for 4 or 5 days for the 5-HT2A and 5-HT1A transfected cells, respectively. Levels of -galactosidase were measured after incubation with the chromogenic substrate o-nitrophenyl- -D-galactopyranoside (20) at 30° C. in a humidified incubator for a recommended period of time and the absorbance was measured at 405 nm. The results were normalized to 100% for oleamide (rel. % potentiation) for the ease of comparison and are the average of 2-8 determinations.

human 5-HT1A receptor [2] = biological target: T2, human 5-HT1A receptor (Homo sapiens, UniProt P08908); assay: R-SAT assay, RAT-1 cells expressing the human 5-HT1A receptor, β-galactosidase readout; format: cell-based; conditions: agent 500 nM, 100 nM 5-HT, compared with oleamide
T2 construct: host or cells: RAT-1 cells, cotransfected with the beta-galactosidase gene
T2 sequence (P08908 1-422): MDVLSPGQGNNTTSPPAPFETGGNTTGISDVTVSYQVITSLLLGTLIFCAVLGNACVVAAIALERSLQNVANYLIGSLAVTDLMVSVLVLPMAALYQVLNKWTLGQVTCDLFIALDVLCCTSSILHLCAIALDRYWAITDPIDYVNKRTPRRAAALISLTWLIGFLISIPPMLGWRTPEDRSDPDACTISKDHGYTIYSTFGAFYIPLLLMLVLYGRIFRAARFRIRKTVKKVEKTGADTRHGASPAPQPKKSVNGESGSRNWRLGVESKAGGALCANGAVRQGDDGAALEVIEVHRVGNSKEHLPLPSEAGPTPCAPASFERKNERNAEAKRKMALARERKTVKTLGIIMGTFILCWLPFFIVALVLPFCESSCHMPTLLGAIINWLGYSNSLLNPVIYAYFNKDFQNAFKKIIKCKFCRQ
Description: as §1, §2, §3

rat 5-HT2A receptor [3] = biological target: T1, rat 5-HT2A receptor; assay: R-SAT assay, NIH 3T3 cells expressing the rat 5-HT2A receptor, β-galactosidase readout; format: cell-based; conditions: for potentiation response: 100 nM oleamide
5-HT7 receptor = biological target: T3, 5-HT7 receptor (Homo sapiens, UniProt P34969); conditions: cited from earlier work
T3 construct: host or cells: HeLa cells, transfected

[4] = biological target: T4, 5-HT3 ion-gated channel receptor (Homo sapiens, UniProt P46098); conditions: 100 nM serotonin, 100 nM oleamide; cited from earlier work
T4 construct: host or cells: frog oocytes, transfected
T4 sequence (P46098 24-478): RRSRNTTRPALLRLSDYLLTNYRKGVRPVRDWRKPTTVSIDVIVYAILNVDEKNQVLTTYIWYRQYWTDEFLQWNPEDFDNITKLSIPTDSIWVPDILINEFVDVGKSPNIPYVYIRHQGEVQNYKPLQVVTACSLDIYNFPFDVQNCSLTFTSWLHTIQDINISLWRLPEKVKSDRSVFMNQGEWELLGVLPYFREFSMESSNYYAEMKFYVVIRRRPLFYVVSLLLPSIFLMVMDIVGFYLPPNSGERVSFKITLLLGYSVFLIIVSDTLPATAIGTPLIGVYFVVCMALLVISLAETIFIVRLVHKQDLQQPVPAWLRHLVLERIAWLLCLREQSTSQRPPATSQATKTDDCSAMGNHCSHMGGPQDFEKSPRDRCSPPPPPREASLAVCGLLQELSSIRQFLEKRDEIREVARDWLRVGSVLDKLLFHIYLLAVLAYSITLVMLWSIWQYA

5-HT2A receptors = biological target: T5, 5-HT2A receptors (Rattus norvegicus, UniProt P14842); conditions: 100 nM serotonin, 100 nM oleamide; Thomas et al. 1997; cited from earlier work
T5 construct: rat pituitary P11 cells expressing the 5-HT2 receptor; endogenous in cells; host or cells: rat pituitary P11 cells

5-HT2A receptor = biological target: T6, 5-HT2A receptor (Homo sapiens, UniProt P28223); conditions: 100 nM serotonin, 100 nM oleamide; Huidobro-Toro et al. 1996; cited from earlier work
T6 construct: host or cells: frog oocytes, transfected

human 5-HT1A receptor [5] = biological target: T2, human 5-HT1A receptor; assay: R-SAT assay, RAT-1 cells expressing the human 5-HT1A receptor, β-galactosidase readout; format: cell-based; conditions: for potentiation: 100 nM 5-HT
5-HT2C receptor = biological target: T7, 5-HT2C receptor (Homo sapiens, UniProt P28335); conditions: cited from earlier work
T7 construct: host or cells: frog oocytes, transfected
T7 sequence (P28335 33-458): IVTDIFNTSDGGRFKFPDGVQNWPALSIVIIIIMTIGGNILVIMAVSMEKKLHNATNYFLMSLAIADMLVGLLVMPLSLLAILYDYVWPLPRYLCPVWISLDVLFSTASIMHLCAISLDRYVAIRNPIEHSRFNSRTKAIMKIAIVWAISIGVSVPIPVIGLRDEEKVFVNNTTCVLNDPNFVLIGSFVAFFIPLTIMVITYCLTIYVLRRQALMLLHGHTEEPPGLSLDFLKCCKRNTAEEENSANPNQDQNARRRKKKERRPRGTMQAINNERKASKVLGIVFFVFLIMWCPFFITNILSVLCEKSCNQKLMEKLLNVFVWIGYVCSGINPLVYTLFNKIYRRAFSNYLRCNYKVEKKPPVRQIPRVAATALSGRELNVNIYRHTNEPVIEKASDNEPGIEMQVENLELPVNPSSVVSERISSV

FAAH = conditions: cited from earlier work

T1 sequence (P14842 whole entry): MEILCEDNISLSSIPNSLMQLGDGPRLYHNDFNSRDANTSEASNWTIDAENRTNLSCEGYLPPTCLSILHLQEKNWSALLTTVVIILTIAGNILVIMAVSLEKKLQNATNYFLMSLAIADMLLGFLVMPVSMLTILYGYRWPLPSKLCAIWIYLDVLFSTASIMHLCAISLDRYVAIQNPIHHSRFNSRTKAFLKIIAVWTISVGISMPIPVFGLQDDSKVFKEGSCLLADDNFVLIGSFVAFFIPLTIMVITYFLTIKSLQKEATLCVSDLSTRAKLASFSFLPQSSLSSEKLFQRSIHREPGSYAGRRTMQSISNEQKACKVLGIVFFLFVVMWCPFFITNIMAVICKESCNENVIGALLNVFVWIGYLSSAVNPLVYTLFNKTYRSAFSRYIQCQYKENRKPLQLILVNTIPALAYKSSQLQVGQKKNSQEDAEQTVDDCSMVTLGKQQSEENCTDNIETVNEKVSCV
T3 sequence (P34969 whole entry): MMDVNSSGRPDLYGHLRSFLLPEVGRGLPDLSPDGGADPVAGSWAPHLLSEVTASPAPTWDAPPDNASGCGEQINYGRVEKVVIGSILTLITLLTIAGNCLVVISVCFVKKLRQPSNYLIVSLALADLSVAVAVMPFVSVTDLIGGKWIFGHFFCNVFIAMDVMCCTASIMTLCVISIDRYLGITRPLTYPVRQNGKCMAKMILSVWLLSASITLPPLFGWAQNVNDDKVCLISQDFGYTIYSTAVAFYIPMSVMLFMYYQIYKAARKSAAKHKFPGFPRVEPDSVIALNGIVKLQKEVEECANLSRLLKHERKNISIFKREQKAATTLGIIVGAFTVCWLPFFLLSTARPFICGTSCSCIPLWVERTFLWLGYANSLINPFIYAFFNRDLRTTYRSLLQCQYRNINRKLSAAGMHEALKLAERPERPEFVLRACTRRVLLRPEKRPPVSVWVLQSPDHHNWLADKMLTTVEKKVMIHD
T5 sequence (P14842 whole entry): as the sequence (P14842 whole entry) above
T6 sequence (P28223 whole entry): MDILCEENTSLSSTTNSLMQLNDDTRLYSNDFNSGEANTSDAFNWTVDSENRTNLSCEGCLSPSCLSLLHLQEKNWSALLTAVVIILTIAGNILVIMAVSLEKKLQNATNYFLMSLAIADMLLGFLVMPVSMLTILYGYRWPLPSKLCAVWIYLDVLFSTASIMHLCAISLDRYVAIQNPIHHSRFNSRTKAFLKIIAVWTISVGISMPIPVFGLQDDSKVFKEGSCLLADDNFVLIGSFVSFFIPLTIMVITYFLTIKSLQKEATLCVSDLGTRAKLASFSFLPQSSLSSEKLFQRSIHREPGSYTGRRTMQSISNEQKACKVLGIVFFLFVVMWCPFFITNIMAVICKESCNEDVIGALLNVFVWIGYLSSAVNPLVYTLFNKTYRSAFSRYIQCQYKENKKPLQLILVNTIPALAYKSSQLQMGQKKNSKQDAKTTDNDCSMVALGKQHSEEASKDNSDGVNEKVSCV

Row | SMILES | potentiation of the 5-HT2A receptor response (in words) (rat 5-HT2A receptor [1]) | potentiation of the 5-HT1A receptor response (in words) (human 5-HT1A receptor [2]) | other results
1 | CCCCCCCC/C=C\CCCCCCCCOCC(CO)OC(C)=O (stereo not drawn) [1-oleyl-2-acetylglycerol] | weakly inhibited | – | –
2 | CCCCCCCC/C=C\CCCCCCC(C)(C)C(N)=O [2,2-dimethyloleamide] | potent inhibitors | – | –
3 | CCCC/C=C\CCCCCCCC(N)=O [14:1^9, Myristoleamide] | – | more effective on the 5-HT1A receptor than 5-HT2A | –
4 | CCCCCC/C=C\CCCCCCCC(N)=O [16:1^9, Palmitoleamide] | – | approaching the potency of oleamide | –
5 | CCCCCCCCCCCCCCCCCC(N)=O [18:0, stearamide] | no observable potentiation; also recorded: ineffective at potentiating | less effective than oleamide, albeit not inactive | –
6 | CCCCCCCC/C=C/CCCCCCCC(N)=O [18:1^9-trans, Elaidamide] | no observable potentiation; also recorded: ineffective at potentiating | less effective than oleamide, albeit not inactive | –
7 | CCCCC/C=C\C/C=C\CCCCCCCC(N)=O [18:2^9,12, Linoleamide] | – | approaching the potency of oleamide | –
8 | CC/C=C\C/C=C\C/C=C\CCCCCCCC(N)=O [18:3^6,9,12, linolenamide] | more effective but still less potent | – | –
9 | CCCCCCCCCCCCCC/C=C\CCCC(N)=O [20:1^5] | – | – | potentiation of the 5-HT2A receptor response (in words) (rat 5-HT2A receptor [1]; listed as 20:1^9): inactivity; potentiation of the 5-HT2A receptor response (in words) (rat 5-HT2A receptor [1]; listed as 20:1^13): modest activity
10 | CCCCCCCC/C=C\CCCCCCCCCCCCCC(N)=O [24:1^9, Nervonamide] | modest activity | – | –
11 | CCCCC/C=C\C/C=C\C/C=C\C/C=C\CCCC(N)=O [Arachidonamide] | ineffective | – | potentiation of the 5-HT2A receptor response (in words) (rat 5-HT2A receptor [1]; listed as arachidonamide): less active or ineffective
12 | CCCCCCCCC#CCCCCCCCC(N)=O [Compound 2, 9-octadecynamide] | nearly equipotent with oleamide | – | –
13 | CCCCCCCC/C=C\CCCCCCCC(=O)NCC(=O)O [N-oleyl glycine, N-Oleoyl glycine] | – | weak potentiator | –
14 | CCCCCCCCC=CCCCCCCCC(=O)N(C)C [NMe2 tertiary amide] | maximum effect | – | –
15 | CCCCC/C=C\C/C=C\C/C=C\C/C=C\CCCC(=O)NCCO [anandamide, reference compound] | weakly inhibitory; also recorded: less active or ineffective | found to potentiate | –
16 | CCCCCCCC/C=C\CCCCCCCC(=O)NC1CC1 [cyclopropyl amide] | uniquely effective at inhibiting; also recorded: inactive or inhibitory | effective at potentiating | –
17 | CCCCCCCCC=CCCCCCCCC(=O)NC(C)C [isopropyl amide] | inactive or inhibitory | effective at potentiating | –
18 | CCCCCCCC/C=C\CCCCCCCC(N)=O [oleamide, cis-9-ocatadecenamide] | most effective | – | potentiation response (rat 5-HT2A receptor [3]; 100 nM 5-HT): 165%; potentiation response (rat 5-HT2A receptor [3]; 1 μM 5-HT): 170%; potentiation at higher concentration (rat 5-HT2A receptor [3]; 1 μM oleamide): no additional potentiation; concentration giving maximal response (rat 5-HT2A receptor [3]; assayed at 100 nM or 1 μM 5-HT): 100 nM; effect of treatment alone (rat 5-HT2A receptor [3]; without 5-HT): no effect; action at the 5-HT7 receptor (5-HT7 receptor; alone): weak agonist; action at the 5-HT7 receptor (5-HT7 receptor; in the presence of serotonin): unsurmountable antagonist; effect on 5-HT3 receptor [4]: no effect; potentiation of 5-HT2A (5-HT2A receptors): 228%; potentiation of 5-HT2A (5-HT2A receptor): 260%; potentiation (human 5-HT1A receptor [5]; 100 nM oleamide): 370%; potentiation (human 5-HT1A receptor [5]; 1 μM oleamide): 560%; lowest concentrations producing a measurable effect (human 5-HT1A receptor [5]; with 5-HT): 1 to 10 nM; effect of treatment alone (human 5-HT1A receptor [5]; without 5-HT): no effect; potentiation of 5-HT2C (5-HT2C receptor; 100 nM serotonin, 100 nM oleamide): 365%; concentration of maximal potentiation (5-HT2C receptor): 100 nM; lowest concentration at which potentiation was observed (5-HT2C receptor): 1 nM
19 | CCCCCCCC/C=C\CCCCCCCC(=O)O [oleic acid, Oleic acid, reference compound] | did not provide a comparable potentiation | better tolerated | –
20 | CCCCCCCC/C=C\CCCCCCCC=O [oleyl aldehyde] | – | – | inhibition of FAAH (in words) (FAAH): potent inhibitors
21 | CCCCCCCC/C=C\CCCCCCCC(=O)NCCO [oleyl ethanolamide] | less active or ineffective | found to potentiate | –
22 | CCCCCCCC/C=C\CCCCCCCC(=O)NCCCO [oleyl propanolamide] | – | equally effective | –
